Measured values from ChEMBL document CHEMBL5131495, “Discovery of unique thiazolidinone-conjugated coumarins as novel broad spectrum antibacterial agents” (Eur J Med Chem, 2022).
Converted amounts (≈) assume the structure as drawn.

Experiments:
Format in all cases: functional
[1] = test system: Staphylococcus aureus; experiment: Antibacterial activity against Staphylococcus aureus assessed as inhibition of bacterial growth
[2] = test system: Acinetobacter baumannii; experiment: Antibacterial activity against Acinetobacter baumannii assessed as inhibition of bacterial growth
[3] = test system: Staphylococcus aureus; experiment: Antibacterial activity against Staphylococcus aureus ATCC 29213 assessed as inhibition of bacterial growth
[4] = test system: Klebsiella pneumoniae; experiment: Antibacterial activity against Klebsiella pneumoniae assessed as inhibition of bacterial growth
[5] = test system: Staphylococcus aureus; experiment: Antibacterial activity against Staphylococcus aureus ATCC 25923 assessed as inhibition of bacterial growth
[6] = test system: Pseudomonas aeruginosa; experiment: Antibacterial activity against Pseudomonas aeruginosa ATCC 27853 assessed as inhibition of bacterial growth
[7] = test system: Staphylococcus aureus; experiment: Antibacterial activity against methicillin resistant Staphylococcus aureus N315 assessed as inhibition of bacterial growth
[8] = test system: Escherichia coli; experiment: Antibacterial activity against Escherichia coli assessed as inhibition of bacterial growth
[9] = test system: Enterococcus faecalis; experiment: Antibacterial activity against Enterococcus faecalis assessed as inhibition of bacterial growth
[10] = test system: Escherichia coli; experiment: Antibacterial activity against Escherichia coli ATCC 25922 assessed as inhibition of bacterial growth
[11] = test system: Pseudomonas aeruginosa; experiment: Antibacterial activity against Pseudomonas aeruginosa assessed as inhibition of bacterial growth

| Compound | MIC [1] | MIC [2] | MIC [3] | MIC [4] | MIC [5] | MIC [6] | MIC [7] | MIC [8] | MIC [9] | MIC [10] | MIC [11] |
| --- | --- | --- | --- | --- | --- | --- | --- | --- | --- | --- | --- |
| Cc1ccc(/C=C2\S/C(=N/c3ccc4c(C)cc(=O)oc4c3)N(CCO)C2=O)o1 | 128 µg/mL (≈ 312 µM) | 8 µg/mL (≈ 19.5 µM) | 128 µg/mL (≈ 312 µM) | 32 µg/mL (≈ 78 µM) | 256 µg/mL (≈ 624 µM) | 16 µg/mL (≈ 39 µM) | 8 µg/mL (≈ 19.5 µM) | 16 µg/mL (≈ 39 µM) | 64 µg/mL (≈ 156 µM) | 64 µg/mL (≈ 156 µM) | 16 µg/mL (≈ 39 µM) |
| Cc1cc(=O)oc2cc(/N=C3/S/C(=C\c4ccc(C#N)cc4)C(=O)N3CCO)ccc12 | 1 µg/mL (≈ 2.32 µM) | 0.5 µg/mL (≈ 1.16 µM) | 128 µg/mL (≈ 297 µM) | 128 µg/mL (≈ 297 µM) | 8 µg/mL (≈ 18.5 µM) | 256 µg/mL (≈ 593 µM) | 2 µg/mL (≈ 4.64 µM) | 256 µg/mL (≈ 593 µM) | 4 µg/mL (≈ 9.27 µM) | 256 µg/mL (≈ 593 µM) | 128 µg/mL (≈ 297 µM) |
| CCCCc1nc(Cl)c(/C=C2\S/C(=N/c3ccc4c(C)cc(=O)oc4c3)N(CCO)C2=O)[nH]1 | 8 µg/mL (≈ 16.4 µM) | 64 µg/mL (≈ 131 µM) | 64 µg/mL (≈ 131 µM) | 64 µg/mL (≈ 131 µM) | 128 µg/mL (≈ 263 µM) | 256 µg/mL (≈ 526 µM) | 128 µg/mL (≈ 263 µM) | 32 µg/mL (≈ 65.7 µM) | 128 µg/mL (≈ 263 µM) | 64 µg/mL (≈ 131 µM) | 256 µg/mL (≈ 526 µM) |
| Cc1cc(=O)oc2cc(/N=C3/S/C(=C\c4ccc[nH]4)C(=O)N3CCO)ccc12 | 64 µg/mL (≈ 162 µM) | 4 µg/mL (≈ 10.1 µM) | 64 µg/mL (≈ 162 µM) | 64 µg/mL (≈ 162 µM) | 128 µg/mL (≈ 324 µM) | 32 µg/mL (≈ 80.9 µM) | 64 µg/mL (≈ 162 µM) | 2 µg/mL (≈ 5.06 µM) | 128 µg/mL (≈ 324 µM) | 128 µg/mL (≈ 324 µM) | 256 µg/mL (≈ 647 µM) |
| Cc1cc(=O)oc2cc(/N=C3/S/C(=C\c4ccccc4)C(=O)N3CCO)ccc12 | 64 µg/mL (≈ 157 µM) | 1 µg/mL (≈ 2.46 µM) | 128 µg/mL (≈ 315 µM) | 256 µg/mL (≈ 630 µM) | 128 µg/mL (≈ 315 µM) | 64 µg/mL (≈ 157 µM) | 64 µg/mL (≈ 157 µM) | 256 µg/mL (≈ 630 µM) | 128 µg/mL (≈ 315 µM) | 256 µg/mL (≈ 630 µM) | 64 µg/mL (≈ 157 µM) |
| Cc1ccc(/C=C2\S/C(=N/c3ccc4c(C)cc(=O)oc4c3)N(CCO)C2=O)c(C)c1 | 64 µg/mL (≈ 147 µM) | 1 µg/mL (≈ 2.3 µM) | 64 µg/mL (≈ 147 µM) | 128 µg/mL (≈ 295 µM) | 64 µg/mL (≈ 147 µM) | 256 µg/mL (≈ 589 µM) | 128 µg/mL (≈ 295 µM) | 64 µg/mL (≈ 147 µM) | 128 µg/mL (≈ 295 µM) | 128 µg/mL (≈ 295 µM) | 16 µg/mL (≈ 36.8 µM) |
| Cc1cc(=O)oc2cc(/N=C3/S/C(=C\C4CCCCC4)C(=O)N3CCO)ccc12 | 256 µg/mL (≈ 621 µM) | 64 µg/mL (≈ 155 µM) | 16 µg/mL (≈ 38.8 µM) | 256 µg/mL (≈ 621 µM) | 256 µg/mL (≈ 621 µM) | 16 µg/mL (≈ 38.8 µM) | 256 µg/mL (≈ 621 µM) | 256 µg/mL (≈ 621 µM) | 256 µg/mL (≈ 621 µM) | 256 µg/mL (≈ 621 µM) | 256 µg/mL (≈ 621 µM) |
| C=CCn1cc(/C=C2\S/C(=N/c3ccc4c(C)cc(=O)oc4c3)N(CCO)C2=O)c2ccccc21 | 128 µg/mL (≈ 264 µM) | 64 µg/mL (≈ 132 µM) | 64 µg/mL (≈ 132 µM) | 8 µg/mL (≈ 16.5 µM) | 32 µg/mL (≈ 65.9 µM) | 32 µg/mL (≈ 65.9 µM) | 128 µg/mL (≈ 264 µM) | 128 µg/mL (≈ 264 µM) | 128 µg/mL (≈ 264 µM) | 128 µg/mL (≈ 264 µM) | 64 µg/mL (≈ 132 µM) |
| Cc1ccc(/C=C2\S/C(=N/c3ccc4c(C)cc(=O)oc4c3)N(CCO)C2=O)cc1 | 64 µg/mL (≈ 152 µM) | 8 µg/mL (≈ 19 µM) | 128 µg/mL (≈ 304 µM) | 256 µg/mL (≈ 609 µM) | 256 µg/mL (≈ 609 µM) | 32 µg/mL (≈ 76.1 µM) | 128 µg/mL (≈ 304 µM) | 128 µg/mL (≈ 304 µM) | 256 µg/mL (≈ 609 µM) | 256 µg/mL (≈ 609 µM) | 128 µg/mL (≈ 304 µM) |
| Cc1cc(=O)oc2cc(/N=C3/S/C(=C\c4ccc(Cl)cc4)C(=O)N3CCO)ccc12 | 128 µg/mL (≈ 290 µM) | 32 µg/mL (≈ 72.6 µM) | 4 µg/mL (≈ 9.07 µM) | 128 µg/mL (≈ 290 µM) | 8 µg/mL (≈ 18.1 µM) | 8 µg/mL (≈ 18.1 µM) | 16 µg/mL (≈ 36.3 µM) | 64 µg/mL (≈ 145 µM) | 128 µg/mL (≈ 290 µM) | 2 µg/mL (≈ 4.54 µM) | 2 µg/mL (≈ 4.54 µM) |
| Cc1cc(=O)oc2cc(/N=C3\NC(=O)CS3)ccc12 | 32 µg/mL (≈ 117 µM) | 256 µg/mL (≈ 933 µM) | 256 µg/mL (≈ 933 µM) | 4 µg/mL (≈ 14.6 µM) | 64 µg/mL (≈ 233 µM) | 128 µg/mL (≈ 467 µM) | 256 µg/mL (≈ 933 µM) | 16 µg/mL (≈ 58.3 µM) | 256 µg/mL (≈ 933 µM) | 128 µg/mL (≈ 467 µM) | 64 µg/mL (≈ 233 µM) |
